Earlier results as cited in US10702482B2, “Slow-release solid oral compositions” (GNOSIS SPA, priority 2013, dated 2020).

SMILES: C[S+](CC[C@H](N)C(=O)O)C[C@H]1O[C@@H](n2cnc3c(N)ncnc32)[C@H](O)[C@@H]1O (stereo partly drawn) [SAMe, S-adenosyl-L-methionine]
- oral bioavailability (in words): rather poor oral bioavailability
